Among the data in ChEMBL document CHEMBL1143940, “Eupalinin A isolated from Eupatorium chinense L. induces autophagocytosis in human leukemia HL60 cells” (Bioorg Med Chem, 2008) are Activity and IC50 values, retold here.

Each structure is given as a SMILES string. pIC50: −log10 of the molar value. Activity calls are given as the source filed them. The rule behind the calls is not given here.

Assay [1] has as its system HL-60. Briefly: Induction of apoptosis in human HL60 cells assessed as increase in phospho-Bad levels at 4 uM after 12 hrs. It counts as functional, cell-based.
Assay [2] deals with HL-60. Nature of the assay: Induction of apoptosis in human HL60 cells assessed as decrease in Bax levels at 4 uM after 12 hrs. It counts as functional, cell-based.
Assay [3] deals with HL-60. Briefly: Induction of nuclear condensation in human HL60 cells at 4 uM after 24 hrs by Hoechst33342 staining method. It counts as functional, cell-based.
For assay [4], the system named is HL-60. Nature of the assay: Induction of DNA fragmentation in human HL60 cells at 4 uM. Type of assay: functional, cell-based. To be noted: TDE = time-dependent effect.
Assay [5] deals with HL-60. Nature of the assay: Effect on caspase 3 activity in human HL60 cells at 4 uM. It counts as functional, cell-based.
Assay [6] relates to HL-60. Nature of the assay: Effect on caspase 2 activity in human HL60 cells at 4 uM. Type of assay: functional, cell-based.
Assay [7] has as its system HL-60. Nature of the assay: Effect on caspase 8 activity in human HL60 cells at 4 uM. It counts as functional, cell-based.
The subject of assay [8] is HL-60. Nature of the assay: Effect on caspase 9 activity in human HL60 cells at 4 uM. Type of assay: functional, cell-based.
Assay [9] relates to HL-60. Nature of the assay: Induction of cell death in human HL60 cells assessed as formation of autophagosomes at 4 uM after 6 hrs. It counts as functional, cell-based.
Assay [10] deals with HL-60. Nature of the assay: Induction of autophagy in human HL60 cells at 4 uM after 12 hrs by MDC staining. It counts as functional, cell-based.
Assay [11] deals with HL-60. Nature of the assay: Disruption of mitochondrial membrane potential in human HL60 cells at 4 uM after 12 hrs. It counts as functional, cell-based.
Assay [12] concerns HL-60. Briefly: Increase in JNK protein level in human HL60 cells at 4 uM by Western blot. It counts as functional, cell-based. On the technique in general: A western blot detects proteins with antibodies after separation by electrophoresis.
Assay [13] deals with HL-60. Nature of the assay: Increase in p38 MAPK protein level in human HL60 cells at 4 uM by Western blot. It counts as functional, cell-based.
In assay [14] the test system is HL-60. Nature of the assay: Cytotoxicity against human HL60 cells. It counts as functional, cell-based.
In assay [15] the test system is HL-60. Briefly: Induction of apoptosis in human HL60 cells at 4 uM in presence of 100 uM caspase inhibitor ZVADFMK by Trypan blue exclusion test. It counts as functional, cell-based.
Assay [16] relates to HL-60. Nature of the assay: Induction of autophagy in human HL60 cells assessed as increase in lipidated microtubule-associated-protein light chain 3 subunit II levels at 4 uM after 3 to 6 hrs. Type of assay: functional, cell-based.
Assay [17] concerns HL-60. Nature of the assay: Increase in intracellular ROS level in human HL60 cells at 4 uM after 12 hrs. It counts as functional, cell-based.
Assay [18] deals with HL-60. Nature of the assay: Induction of apoptosis in human HL60 cells assessed as increase in phospho-Bcl2 at 4 uM after 12 hrs. Type of assay: functional, cell-based.
Assay [19] has as its system HL-60. Briefly: Induction of apoptosis in human HL60 cells assessed as increase in phospho-Bcl-xl levels at 4 uM after 12 hrs. Type of assay: functional, cell-based.
In assay [20] the target is RAC-alpha serine/threonine-protein kinase (Homo sapiens) (UniProt P31749). Nature of the assay: Increase in Akt phosphorylation in human HL60 cells at 4 uM after 48 hrs. It counts as cell-based. The following applies: HL-60.
Assay [21] has as its system HL-60. Nature of the assay: Induction of autophagy in human HL60 cells at 4 uM in presence of PI3K inhibitor 3-methyladenine. It counts as functional, cell-based.
In assay [22] the test system is HL-60. Nature of the assay: Induction of autophagy in human HL60 cells at 4 uM in presence of PI3K inhibitor LY-294002. It counts as functional, cell-based.

Chain of RAC-alpha serine/threonine-protein kinase (Homo sapiens) (P31749 whole entry): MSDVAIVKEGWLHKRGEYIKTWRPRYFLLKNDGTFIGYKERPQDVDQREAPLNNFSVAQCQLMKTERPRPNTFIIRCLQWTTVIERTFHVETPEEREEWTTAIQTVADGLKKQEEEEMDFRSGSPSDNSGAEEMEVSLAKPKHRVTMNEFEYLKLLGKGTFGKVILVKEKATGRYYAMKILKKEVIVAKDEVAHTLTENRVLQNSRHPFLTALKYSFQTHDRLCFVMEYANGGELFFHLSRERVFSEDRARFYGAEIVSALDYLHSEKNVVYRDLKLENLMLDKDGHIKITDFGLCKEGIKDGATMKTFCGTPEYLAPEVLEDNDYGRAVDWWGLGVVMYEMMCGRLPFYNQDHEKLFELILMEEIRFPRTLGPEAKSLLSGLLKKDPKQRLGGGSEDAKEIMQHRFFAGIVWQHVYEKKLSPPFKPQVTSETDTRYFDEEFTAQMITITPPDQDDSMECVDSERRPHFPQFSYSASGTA

For `C=C1C(=O)O[C@@H]2/C=C(/C)[C@@H](OC(C)=O)C[C@H]3O[C@]3(C)C[C@@H](OC(=O)/C(=C/C)CO)[C@@H]12` [EUPALININ A], the outcome with HL-60 [1], in the assay on HL-60 [2], in the assay on HL-60 [3], in the assay on HL-60 [5], in the assay on HL-60 [6] and in the assay on HL-60 [7] was Active. Further, the result in the assay with HL-60 [8], in the assay with HL-60 [9], in the assay with HL-60 [10], in the assay with HL-60 [11], in the assay with HL-60 [12] and in the assay on HL-60 [13] was Active. Also, the result (in the assay with HL-60 [16]; in the assay on HL-60 [17]; with HL-60 [18]; in the assay on HL-60 [19]; in [20]; in the assay on HL-60 [21]) was Active. Also, the result in the assay with HL-60 [22] was Active. Also, the Activity entry in the assay with HL-60 [4] was “tde”. The pIC50 (as a rule, the negative decadic logarithm of the IC50, by convention in mol/L) in the assay on HL-60 [14] was 5.62. Also, the result in the assay on HL-60 [15] was inactive.
